Assay results as given in patent US20080194666A1, “Combination Treatment Methods” (MEDICAL RESEARCH COUNCIL, priority 2005, published 2008).

Tested on: cabbage root fly
Assay: Swede field trials in Norway, cabbage root fly damage
Type: in vivo
Description: An extensive program of non-public field trials, which included five crops of swede were carried out. The field trials design was based around multiple applications of either ECOguard® liquid (garlic juice concentrate) or granules (wood flour granules impregnated with the garlic juice concentrate) and in four out of the five swede trials was referenced against Dimethoate as a standard.

## CNC(=O)CSP(=S)(OC)OC [Dimethoate]
Ga-Fa
  mean saleable yield (cat 1 + 2): 7.27 kg/sample
Mid-Troms
  mean saleable yield (cat 1 + 2): 5.84 kg/sample
Sor Ost
  mean saleable yield (cat 1 + 2): 22.16 kg/sample
Toten
  mean saleable yield (cat 1 + 2): 11.95 kg/sample
In vivo
  Difference of Means, trt=1 (control) subtracted: −0.3100
  cabbage root fly damage versus control: significantly reduced damage
  root damage index (RDI), % Change: −5.8%
  root damage index (RDI), Mean: 43.90
Mean of four sites
  mean saleable yield (cat 1 + 2), Mean: 11.95 kg/sample
Mean of four sites versus control
  mean saleable yield, % Change: +8%
